The test system of test [1] is human ovarian cancer OVCAR3 cell xenograft tumor. As to conditions: PLD 3 mg/kg i.v. qw x 3 w; for tumor growth inhibition (in words): (I-1) 100 mg/kg p.o. qd x 21 d. An excerpt: A total of 56 immunodeficient mice were subcutaneously injected with 10×10^6 OVCAR3 cells to establish a xenograft tumor model. Tumor-bearing mice with uniform tumors were randomly grouped into different treatment groups based on tumor volume, with 6 mice in each group.
Tumor cells: OVCAR3; 10×10^6 cells+Matrigel gel/mouse. A total of 56 mice were inoculated. 24 tumor-bearing mice with relatively uniform tumors were selected and randomly divided into 4 experimental groups, with 6 mice in each group.
(§1) Under sterile conditions, a xenograft tumor model was established by subcutaneous injection of tumor cells into the right dorsal side of immunodeficient mice. When the tumor reached an appropriate size (100 mm^3 to 200 mm^3), the animals were randomly grouped by randomized block method based on the tumor volume of the animals, the tumor volume difference of each group should be less than 20% of the mean value, with 6 to 7 animals in each group, and administration was started on the day of grouping (i.e., d1). The body weight and tumor size of the animals were measured twice a week during the experiment. The clinical symptoms were observed and recorded daily. At the end of administration or at the end of the experiment.
(§2) The tumor volume (TV) was calculated as follows: TV=a×b^2/2, where a and b represent the measured length and width of the tumor, respectively.
(§3) The relative tumor volume (RTV) was calculated as follows: RTV=Vt/V1, where V1 represents the tumor volume at the time of grouping and administration (day 1), and Vt represents the tumor volume at the time of measurement.
(§4) The synergy score was calculated using the following formula (Clarke R, 1997):
(§5) [formula] • where A represents response to drug A; B represents response to drug B; C represents response to vehicle control; AB represents response to combination treatment with A and B.
(§6) The antitumor growth curves of the test substances were plotted by taking the X-axis as the treatment time (day) and the corresponding tumor volume (mean value) as the Y-axis. […] All data were statistically analyzed using SPSS (Statistical Product and Service Solutions) software (version 18.0, IBM, Armonk, NY, U.S.). Graphing was performed using Prism version 6 (GraphPad Software Inc., San Diego, CA).
(§7) For combination treatment, a synergy score of <1 indicated antagonistic effect, a synergy score of =1 indicated additive effect, and a synergy score of >1 indicated synergistic effect.

Test [2] concerns mouse ovarian cancer ID8 cells. Kind of test: Murine ovarian cancer ID8 cell intraperitoneal model, combination with PLD. In kind it is in vivo, mouse (C57BL/6). The method, then:
A total of 90 C57BL/6 mice were intraperitoneally injected with 15×10^6 ID8 cells to establish an ovarian cancer intraperitoneal model.
The body weight and tumor volume of the animals were measured twice or thrice a week during the experiment. The clinical symptoms were observed and recorded daily. After the administration was completed, the abdominal girth, body weight, and survival time of the mice were continuously observed until all the animals were subjected to euthanasia.
The tumor volume (TV) was measured using an IVIS imaging system, and the total luminescence value (Total flux) of each mouse was calculated under the same measurement area.
The animals were euthanized according to animal welfare principles when the body weight loss of the animals exceeded 20%, disease progression or moribund state was observed, the tumor burden exceeded 10% of the animal's body weight, the abdominal girth exceeded 100 mm, or the body weight exceeded 30 g.
Graphing was performed using Prism version 9 (GraphPad Software Inc., San Diego, CA), and the survival time and ascites production time were analyzed using the log-rank test.

The subject of test [3] is human ovarian cancer OVCAR3 cell xenograft tumor. Particulars: doxorubicin hydrochloride 3 mg/kg i.v. qw x 4 w; for tumor growth inhibition (in words): (I-1) 100 mg/kg p.o. qd x 28 d; for RTV on day 29 after administration (mean value ± standard error) / T/C (%) on day 29 after administration: day 29, (I-1) 100 mg/kg p.o. qd x 28 d.
Excerpt: A total of 71 immunodeficient mice were subcutaneously injected with 10×10^6 OVCAR3 cells to establish a xenograft tumor model. Tumor-bearing mice with uniform tumors were randomly grouped into different treatment groups based on tumor volume, with 7 mice in each group.
Tumor cells: OVCAR3; 10×10^6 cells+Matrigel gel/mouse. A total of 71 mice were inoculated. 28 tumor-bearing mice with relatively uniform tumors were selected and randomly divided into 4 experimental groups, with 7 mice per group.
as §1, §2, §3, §4, §5, §6, §7

The mark [4] stands for this setting: day 22, (I-1) 100 mg/kg p.o. qd x 21 d.

The structures appear in SMILES notation. Structures can show the parent of a compound that is named as a salt. Where two headings read alike, the source gives them in different places.

Turning to `Cc1cc(Nc2ncc(Cl)c(Nc3ccccc3S(=O)(=O)C(C)C)n2)c(OC(C)C)cc1C1=CCN(C2CCOCC2)CC1` [Compound represented by formula (I-1)], in test [1], the “tumor growth inhibition (in words)” value is “moderate tumor growth inhibition”. Also, in test [1] (setting [4]), the “RTV on day 22 after administration (mean value ± standard error)” value is recorded as 7.42 ± 1.06 and the “T/C (%) on day 22 after administration” value worked out at 72.77%. Moreover, in test [2] (compared with the solvent control group (combination also vs. monotherapy groups)), the “survival time of the mice (in words)” value is on record as “prolonged”. Further, the “T/C on day 22” value in test [2] (day 22, (I-1) 100 mg/kg p.o. qd x 21 d, PLD 3 mg/kg i.v. qw x 3 w) is given as 37.49%. Further, the “T/C (%) on day 36 after administration” value in test [2] (day 36, (I-1) 100 mg/kg p.o. qd x 21 d, PLD 3 mg/kg i.v. qw x 3 w) amounted to 97.13%. Moreover, in test [2] (day 36, in vivo imaging (Total flux), (I-1) 100 mg/kg p.o. qd x 21 d, PLD 3 mg/kg i.v. qw x 3 w), the “RTV on day 36 after administration (mean value ± standard error)” value came to 4.72 ± 1.35. In test [3], the “tumor growth inhibition (in words)” value is “moderate tumor growth inhibition”, the “RTV on day 29 after administration (mean value ± standard error)” value is given as 7.95 ± 1.31 and the “T/C (%) on day 29 after administration” value came out at 63.15%.
As to `COc1cccc2c1C(=O)c1c(O)c3c(c(O)c1C2=O)C[C@@](O)(C(=O)CO)C[C@@H]3O[C@H]1C[C@H](N)[C@H](O)[C@H](C)O1` [Doxorubicin hydrochloride, reference compound], the “tumor growth inhibition (in words)” value in test [1] was “moderate tumor growth inhibition”. Further, in test [3], the “tumor growth inhibition (in words)” value is “moderate tumor growth inhibition”, the “RTV on day 29 after administration (mean value ± standard error)” value came out at 8.88 ± 1.19 and the “T/C (%) on day 29 after administration” value came out at 70.50%.

The record behind these values is patent US20260240843A1, “PHARMACEUTICAL COMPOSITION AND USE THEREOF” (priority 2023, published 2026).
